Data published in ChEMBL document CHEMBL3885881, “DrugMatrix”.

Organism: Rattus norvegicus
Assay: DrugMatrix - Regimen: Daily Repeat
Type: toxicity, organism-based, Sprague-Dawley
Design: regimen Daily Repeat, gender Male, age 6-8 weeks
Settings: in vivo, po, route oral GAVAGE, […]; for ABSOLUTE BASOPHIL / ABSOLUTE EOSINOPHIL / ABSOLUTE LYMPHOCYTE / ABSOLUTE MONOCYTE / ABSOLUTE SEGMENTED NEUTROPHIL / BASOPHIL / EOSINOPHIL / ERYTHROCYTE COUNT / HEMATOCRIT / HEMOGLOBIN / LEUKOCYTE COUNT / LYMPHOCYTE / MEAN CORPUSCULAR HEMOGLOBIN / MEAN CORPUSCULAR HEMOGLOBIN CONCENTRATION / MEAN CORPUSCULAR VOLUME / MONOCYTE / NEUTROPHIL / NUCLEATED RED BLOOD CELLS / PLATELET COUNT: tissue Blood; for ALANINE AMINOTRANSFERASE / ALBUMIN / ALKALINE PHOSPHATASE / ASPARTATE AMINOTRANSFERASE / BLOOD UREA NITROGEN / CARBON DIOXIDE / CHLORIDE / CHOLESTEROL / CREATINE PHOSPHOKINASE / CREATININE / GLUCOSE / LACTATE DEHYDROGENASE / LIPASE / PHOSPHORUS / POTASSIUM / SODIUM / TOTAL BILIRUBIN / TOTAL PROTEIN / URIC ACID: tissue Plasma
[1] = 20 mg/kg, 120 h, dose level Low, time 5 day
[2] = 200 mg/kg, 72 h, dose level High, time 3 day
[3] = 200 mg/kg, 120 h, dose level High, time 5 day
[4] = 200 mg/kg, dose level High, time 28 day

## CCCCCCCCCc1ccc(O)cc1 [4-NONYLPHENOL]
[1]
  ABSOLUTE BASOPHIL: 0 CELLS/uL
  ABSOLUTE EOSINOPHIL: 0 CELLS/uL
  ABSOLUTE LYMPHOCYTE: 17193.33 CELLS/uL
  ABSOLUTE MONOCYTE: 138.33 CELLS/uL
  ABSOLUTE SEGMENTED NEUTROPHIL: 1901.67 CELLS/uL
  BASOPHIL: 0%
  EOSINOPHIL: 0%
  ERYTHROCYTE COUNT: 5.43 x10E6/uL
  HEMATOCRIT: 34.2%
  HEMOGLOBIN: 13.17 G/DL
  LEUKOCYTE COUNT: 19.23 x10E3/uL
  LYMPHOCYTE: 89.67%
  MEAN CORPUSCULAR HEMOGLOBIN: 24.2 pg
  MEAN CORPUSCULAR HEMOGLOBIN CONCENTRATION: 38.5 G/DL
  MEAN CORPUSCULAR VOLUME: 62.9 fL
  MONOCYTE: 0.67%
  NEUTROPHIL: 9.67%
  NUCLEATED RED BLOOD CELLS: 0 /100WBC
  PLATELET COUNT: 1124 x10E3/uL
  ALANINE AMINOTRANSFERASE: 65.33 u/L
  ALBUMIN: 3.77 G/DL
  ALKALINE PHOSPHATASE: 413 u/L
  ASPARTATE AMINOTRANSFERASE: 82.67 u/L
  BLOOD UREA NITROGEN: 15.67 mg/dL
  CARBON DIOXIDE: 25.67 mmol/L
  CHLORIDE: 102.33 MEQ/L
  CHOLESTEROL: 56.33 mg/dL
  CREATINE PHOSPHOKINASE: 278 u/L
  CREATININE: 0.21 mg/dL
  GLUCOSE: 202.33 mg/dL
  LACTATE DEHYDROGENASE: 147 u/L
  LIPASE: 10.67 u/L
  PHOSPHORUS: 10.77 mg/dL
  POTASSIUM: 5.35 MEQ/L
  SODIUM: 142.1 MEQ/L
  TOTAL BILIRUBIN: 0.2 mg/dL
  TOTAL PROTEIN: 5.57 G/DL
  URIC ACID: 1.3 mg/dL
[2]
  ABSOLUTE BASOPHIL: 0 CELLS/uL
  ABSOLUTE EOSINOPHIL: 0 CELLS/uL
  ABSOLUTE LYMPHOCYTE: 7018 CELLS/uL
  ABSOLUTE MONOCYTE: 153.33 CELLS/uL
  ABSOLUTE SEGMENTED NEUTROPHIL: 495.33 CELLS/uL
  BASOPHIL: 0%
  EOSINOPHIL: 0%
  ERYTHROCYTE COUNT: 5.58 x10E6/uL
  HEMATOCRIT: 35.4%
  HEMOGLOBIN: 13.8 G/DL
  LEUKOCYTE COUNT: 7.67 x10E3/uL
  LYMPHOCYTE: 92%
  MEAN CORPUSCULAR HEMOGLOBIN: 24.73 pg
  MEAN CORPUSCULAR HEMOGLOBIN CONCENTRATION: 39 G/DL
  MEAN CORPUSCULAR VOLUME: 63.47 fL
  MONOCYTE: 2%
  NEUTROPHIL: 6%
  NUCLEATED RED BLOOD CELLS: 0 /100WBC
  PLATELET COUNT: 1128 x10E3/uL
  ALANINE AMINOTRANSFERASE: 81.33 u/L
  ALBUMIN: 3.77 G/DL
  ALKALINE PHOSPHATASE: 503.67 u/L
  ASPARTATE AMINOTRANSFERASE: 95.67 u/L
  BLOOD UREA NITROGEN: 14.33 mg/dL
  CARBON DIOXIDE: 32 mmol/L
  CHLORIDE: 103 MEQ/L
  CHOLESTEROL: 45.33 mg/dL
  CREATINE PHOSPHOKINASE: 276.67 u/L
  CREATININE: 0.21 mg/dL
  GLUCOSE: 139 mg/dL
  LACTATE DEHYDROGENASE: 138.67 u/L
  LIPASE: 10 u/L
  PHOSPHORUS: 10.23 mg/dL
  POTASSIUM: 5.46 MEQ/L
  SODIUM: 145.47 MEQ/L
  TOTAL BILIRUBIN: 0.1 mg/dL
  TOTAL PROTEIN: 5.47 G/DL
  URIC ACID: 0.9 mg/dL
[3]
  ABSOLUTE BASOPHIL: 0 CELLS/uL
  ABSOLUTE EOSINOPHIL: 0 CELLS/uL
  ABSOLUTE LYMPHOCYTE: 11098.67 CELLS/uL
  ABSOLUTE MONOCYTE: 165.33 CELLS/uL
  ABSOLUTE SEGMENTED NEUTROPHIL: 402.67 CELLS/uL
  NUCLEATED RED BLOOD CELLS: 0 /100WBC
  CARBON DIOXIDE: 26.67 mmol/L
  LACTATE DEHYDROGENASE: 116.33 u/L
  LIPASE: 10.33 u/L
  URIC ACID: 1.43 mg/dL
[4]
  BASOPHIL: 0.42%
  EOSINOPHIL: 0.61%
  ERYTHROCYTE COUNT: 8.21 x10E6/uL
  HEMATOCRIT: 48.61%
  HEMOGLOBIN: 16.26 G/DL
  LEUKOCYTE COUNT: 11.53 x10E3/uL
  LYMPHOCYTE: 85.82%
  MEAN CORPUSCULAR HEMOGLOBIN: 19.84 pg
  MEAN CORPUSCULAR HEMOGLOBIN CONCENTRATION: 33.5 G/DL
  MEAN CORPUSCULAR VOLUME: 59.24 fL
  MONOCYTE: 1.34%
  NEUTROPHIL: 10.54%
  PLATELET COUNT: 1292.8 x10E3/uL
  ALANINE AMINOTRANSFERASE: 29.3 u/L
  ALBUMIN: 3.91 G/DL
  ALKALINE PHOSPHATASE: 186.6 u/L
  ASPARTATE AMINOTRANSFERASE: 70.1 u/L
  BLOOD UREA NITROGEN: 11.8 mg/dL
  CHLORIDE: 107.1 MEQ/L
  CHOLESTEROL: 66 mg/dL
  CREATINE PHOSPHOKINASE: 191.6 u/L
  CREATININE: 0.46 mg/dL
  GLUCOSE: 145.6 mg/dL
  PHOSPHORUS: 12.09 mg/dL
  POTASSIUM: 6.67 MEQ/L
  SODIUM: 149 MEQ/L
  TOTAL BILIRUBIN: 0.23 mg/dL
  TOTAL PROTEIN: 6.7 G/DL
